According to patent US10238688B2, “Combination therapies for bladder cancer” (GENEDIA BIOTECH CO. LTD., priority 2015, dated 2019):

Assays:
Assay type in all cases: cell-based, human
H-bc = experiment: MTT cell survival / IC50, H-bc cells
Description: (§1) The clinical grade of the chemotherapeutics (NCI Dictionary of Cancer Terms) was provided by the First Affiliated Hospital of Harbin Medical University: Pirarubicin (Pi, Wanle, Shenzhen), Paclitaxel (Pa, Taiji, Sichuan), Adriamycin (Ad, Pfizer, Jiangsu), Epirubicin Hydrochloride (EH, Haizheng, Zhejiang), Hydroxycamptothecin (Hy, Lishizhen, Hubei), Cisplatin (Ci, Haosen, Jiangsu), Gemcitabine (Ge, Haosen, Jiangsu) and Mitomycin (Mi, Haizheng, Zhejiang). The drug induced cell death was determined by a thiazolyl […] (MTT, 490 nm reading) based cell proliferation assay in the cultured cells following treatment by various concentrations of drugs for 72 hours. The relative chemoresistance to each drug of all cell lines was calculated with the lowest IC50 as a reference. The overall chemoresistance of each cell line was described as “chemoresistance index”, the numerator of the total relative IC50 to all the drugs over the number of drugs to rank the overall resistance state of each cell line to the six chemotherapeutics collectively.
(§2) The relative IC50 (fold) of each drug of all nine cell lines was normalized to the lowest IC50 in the most sensitive cell line (FIG. 2G), to describe the single drug resistance of cell lines. The overall chemoresistance of each cell line, a “chemoresistance index” (the numerator of the total relative IC50 over the number of drugs) (FIG. 2G) were calculated to rank the overall resistance state of each cell line to this six chemotherapeutics.
(§3) Twenty six-drug combinations at the indicated doses were initially generated through a random number generator (using MATLAB MathWorks©, Natick, Mass., U.S.) (The upper half of Table 1). The cell survival (% over the not drug control) of treated cells was determined and then used for a calculation of the average cumulative cell survival (%, ACS: the sum of cell survival (%) per combination divided by the number of cell lines tested). ACS<30% was used to separate the effective from the not-effective combinations.

EJ = experiment: MTT cell survival / IC50, EJ cells
Description: as §1, §2, §3

Biu87 = experiment: MTT cell survival / IC50, Biu87 cells
Description: as §1, §2, §3

UM-UC-3 = experiment: MTT cell survival / IC50, UM-UC-3 cells
Description: as §1, §2, §3

SCaBER = experiment: MTT cell survival / IC50, SCaBER squamous carcinoma cells
Description: as §1, §2

[1] = tested on: bladder cancer cell lines; experiment: Average cumulative cell survival (ACS) over the panel of cell lines tested
Description: as §1
The “Differential Evolution” algorithm guided experimental optimization (DE) consisted of three iterative operations: generating drug combinations of experimental testing, acquiring the efficacy of the generated drug combinations with biological assays and recalculating further improved drug combinations using a feedback search algorithm. This example first tested twenty drug combinations at randomized doses. These drug combinations were generated from a random integer matrix generator, coded in MATLAB™ language. These twenty drug combinations were then experimentally tested for cancer cell cytotoxicity. The experimental data were then subjected to calculation with a DE algorithm for new drug combinations based on three major mathematical calculations: “Mutation”, “Crossover” and “Selection”. The equations for each step can be found in the main test. The equations for each step are coded in MATLAB™ language.
as §3, with “combinations. Nine of the twenty combinations tested in the 1st round of iteration fell into this category (the lower half of Table 1).” for “combinations.”

Heat Shock pathway = experiment: Cignal Finder dual-luciferase pathway reporter, Heat Shock; parameters: key to Relative activity, Heat Shock reporter: firefly/renilla ratio, background (negative control) subtracted; settings: for Relative activity, Heat Shock reporter: luc/Renluc relative to negative control reporter, single drug at 4 folds vs EH/Ci/Mi combination
Description: The pathway analysis was performed with Qiagen's Cignal Finder Pathway Reporter Array systems according to the manufacturer's instructions. The pathway-focused dual-luciferase reporter construct was a mixture of an inducible transcription factor responsive firefly luciferase reporter and constitutively expressing renilla construct. Transcriptional response element (TRE) sequence response elements to each specific transcriptional factor triggered by the different signaling pathways are positioned before the TATA box of firefly luciferase reporter gene. The extent of activity of the reporter reflects the level of activity of the particular signaling pathway. CMV controlled renilla expression vector is co-transfected into the cell as an internal control. Non-inducible reporter construct that lacks the transcriptional factor binding sequence and could not be induced by any transcription factors is used as a negative control. Cells transfected with CMV directed firefly luciferase reporter gene serve as a positive control. Briefly, cells seeded in 6-well plates were transfected with Cignal finder pathway arrays according to the manufacturer's instructions (Qiagen). Then cells were seeded onto 96-well plates. […] After 6 h of incubation with the different drugs at 37° C., cells were lysed and a dual luciferase assay (for firefly and renilla luciferase) was performed using a PromegaGloMax 20/20 illuminometer. The firefly luciferase activities were normalized over the renilla luciferase activities after background activity determined by luciferase activities of negative controls was subtracted. A triple test of cell survival under these drug doses was also performed by MTT assay following 18 h incubation at 37° C. […]

[2] = Table S3, ng/ml: Pi 40, Pa 160, EH 250, Ci 1500, Mi 200, 1=Ci/Mi, 2=EH/Ci/Mi, 3=Pa/Ci/Mi, 4=Pi/Ci/Mi
[3] = ng/ml: EH 1000, Ci 6000, Mi 800, Pi 160, Pa 640, Ge 20, EH/Ci/Mi regimen

**Q.** For N.N.[Cl][Pt][Cl] [Ci, (SP-4-2)-diamminedichloroplatinum(II)], which “Cell survival 72 hours” value (H-bc; H-bc cells, Table 4 (A)) is on record?
**A.** 1.61%

**Q.** What about the “ACS (%)” value (H-bc; H-bc cells, Table 4 (B)) of the same molecule?
**A.** 1.61%

**Q.** What about the “Cell survival (%)” value (H-bc; H-bc, Table S3, ng/ml: Pi 40, Pa 160, EH 250, Ci 1500, Mi 200, 1=Ci/Mi, 2=EH/Ci/Mi, 3=Pa/Ci/Mi, 4=Pi/Ci/Mi) of the same molecule?
**A.** 41.98%

**Q.** What about the “Single drug 4X Cell Survival (%)” value (H-bc; H-bc, ng/ml: EH 1000, Ci 6000, Mi 800, Pi 160, Pa 640, Ge 20, EH/Ci/Mi regimen) of the same molecule?
**A.** 1.61%

**Q.** What about the “Cell survival (%)” value (EJ; [2]) of the same molecule?
**A.** 32.34%

**Q.** What about the “Single drug 4X Cell Survival (%)” value (EJ; [3]) of the same molecule?
**A.** 22.36%

**Q.** What about the “Cell survival (%)” value (Biu87; Biu87, Table S3, ng/ml: Pi 40, Pa 160, EH 250, Ci 1500, Mi 200, 1=Ci/Mi, 2=EH/Ci/Mi, 3=Pa/Ci/Mi, 4=Pi/Ci/Mi) of the same molecule?
**A.** 20.94%

**Q.** And the “Single drug 4X Cell Survival (%)” value (Biu87; Biu87, ng/ml: EH 1000, Ci 6000, Mi 800, Pi 160, Pa 640, Ge 20, EH/Ci/Mi regimen)?
**A.** 12.93%

**Q.** And the “Cell survival 72 hours” value (Biu87; Biu87 cells, Table 4 (A))?
**A.** 12.93%

**Q.** What about the “ACS (%)” value (Biu87; Biu87 cells, Table 4 (B)) of the same molecule?
**A.** 12.93%

**Q.** And the “Cell survival (%)” value (UM-UC-3; UM-UC-3, Table S3, ng/ml: Pi 40, Pa 160, EH 250, Ci 1500, Mi 200, 1=Ci/Mi, 2=EH/Ci/Mi, 3=Pa/Ci/Mi, 4=Pi/Ci/Mi)?
**A.** 14.71%

**Q.** And the “Single drug 4X Cell Survival (%)” value (UM-UC-3; UM-UC-3, ng/ml: EH 1000, Ci 6000, Mi 800, Pi 160, Pa 640, Ge 20, EH/Ci/Mi regimen)?
**A.** 9.33%

**Q.** And the “ACS (%)” value (UM-UC-3; UM-UC-3 cells, Table 4 (B))?
**A.** 9.33%

**Q.** And the “Cell survival 72 hours” value (UM-UC-3; Um-Uc-3 cells, Table 4 (A))?
**A.** 9.33%

**Q.** What about the “Cell survival (%)” value (SCaBER; [2]) of the same molecule?
**A.** 22.05%

**Q.** What about the “Single drug 4X Cell Survival (%)” value (SCaBER; [3]) of the same molecule?
**A.** 5.58%

**Q.** And the “ACS (%)” value ([1]; eight cell lines, Table S3, ng/ml: Pi 40, Pa 160, EH 250, Ci 1500, Mi 200, 1=Ci/Mi, 2=EH/Ci/Mi, 3=Pa/Ci/Mi, 4=Pi/Ci/Mi)?
**A.** 22.9%

**Q.** What about the ACS ([1]; four-fold dosed component drugs alone: Ci 6000 ng/mL, Mi 800 ng/mL, EH 1000 ng/mL (Table S4)) of the same molecule?
**A.** 16.60%

**Q.** What about the “ACS (%) for cancer cells” value ([1]; seven cancer cell lines, ng/ml: EH 1000, Ci 6000, Mi 800, Pi 160, Pa 640, Ge 20, EH/Ci/Mi regimen) of the same molecule?
**A.** 9.11%

**Q.** What about the “digitalized pathway activity, Heat Shock” value (Heat Shock pathway; 5637 cells) of the same molecule?
**A.** 0 (null (0) if neither of the above holds)

**Q.** What about the “relative drug trigged pathway activity over the no-drug level, Heat Shock” value (Heat Shock pathway; 5637 cells) of the same molecule?
**A.** 0.65 fold

**Q.** And the “Relative activity, Heat Shock reporter” value (Heat Shock pathway; 5637 cells)?
**A.** 9.18

**Q.** What about the “relative drug trigged pathway activity over the no-drug level, Heat Shock” value (Heat Shock pathway; Biu87 cells) of the same molecule?
**A.** 1.52 fold

**Q.** What about the “Relative activity, Heat Shock reporter” value (Heat Shock pathway; Biu87 cells) of the same molecule?
**A.** 2.87

**Q.** What about the “digitalized pathway activity, Heat Shock” value (Heat Shock pathway; H-bc cells) of the same molecule?
**A.** 0 (null (0) if neither of the above holds)

**Q.** And the “relative drug trigged pathway activity over the no-drug level, Heat Shock” value (Heat Shock pathway; H-bc cells)?
**A.** 1.19 fold

**Q.** And the “Relative activity, Heat Shock reporter” value (Heat Shock pathway; H-bc cells)?
**A.** 16.31

**Q.** What about the “digitalized pathway activity, Heat Shock” value (Heat Shock pathway; SV-HUC-1 cells) of the same molecule?
**A.** 0 (null (0) if neither of the above holds)

**Q.** And the “relative drug trigged pathway activity over the no-drug level, Heat Shock” value (Heat Shock pathway; SV-HUC-1 cells)?
**A.** 0.93 fold

**Q.** And the “Relative activity, Heat Shock reporter” value (Heat Shock pathway; SV-HUC-1 cells)?
**A.** 36.80

**Q.** And the “digitalized pathway activity, Heat Shock” value (Heat Shock pathway; UM-UC-3 cells)?
**A.** 0 (null (0) if neither of the above holds)

**Q.** What about the “Relative activity, Heat Shock reporter” value (Heat Shock pathway; UM-UC-3 cells) of the same molecule?
**A.** 3.42

**Q.** And the “relative drug trigged pathway activity over the no-drug level, Heat Shock” value (Heat Shock pathway; Um-Uc-3 cells)?
**A.** 0.79 fold
